Results as given in PubChem BioAssay AID2060484 (Molecular Pharmacology Branch, DTP, NCI, 2025).

Tested on: SUM149PT spheroids with HUVEC/MSC, viability
Experiment: Anticancer human tumor SUM149PT cell line growth inhibition [GQUAD];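 also: spheroids exposed to drugs for seven days before readout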;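 as to viability, T/C: percent viability relative to DMSO vehicle control taken as 100%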
Settings: for IC50: curve of first compound; for viability, T/C: stronger effect = lower value
How it was run: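 Tumor cells were grown as complex spheroids with HUVEC endothelial cells and mesenchymal stem cells as stroma. G-quadruplex stabilizers were combined with targeted agents over half-log dilutions from near the clinical Cmax, or from 10 microM.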

[1] = second compound 0.0316 µM, first compound 0.0316 µM
[2] = second compound 0.0316 µM, first compound 0.1 µM
[3] = second compound 0.0316 µM, first compound 0.316 µM
[4] = second compound 0.0316 µM, first compound 1 µM
[5] = second compound 0.0316 µM, first compound 3.16 µM
[6] = second compound 0.0316 µM, first compound 10 µM
[7] = second compound 0.1 µM, first compound 0.0316 µM
[8] = second compound 0.1 µM, first compound 0.1 µM
[9] = second compound 0.1 µM, first compound 0.316 µM
[10] = second compound 0.1 µM, first compound 1 µM
[11] = second compound 0.1 µM, first compound 3.16 µM
[12] = second compound 0.1 µM, first compound 10 µM
[13] = second compound 0.316 µM, first compound 0.0316 µM
[14] = second compound 0.316 µM, first compound 0.1 µM
[15] = second compound 0.316 µM, first compound 0.316 µM
[16] = second compound 0.316 µM, first compound 1 µM
[17] = second compound 0.316 µM, first compound 3.16 µM
[18] = second compound 0.316 µM, first compound 10 µM
[19] = second compound 1 µM, first compound 0.0316 µM
[20] = second compound 1 µM, first compound 0.1 µM
[21] = second compound 1 µM, first compound 0.316 µM
[22] = second compound 1 µM, first compound 1 µM
[23] = second compound 1 µM, first compound 3.16 µM
[24] = second compound 1 µM, first compound 10 µM
[25] = second compound 3.16 µM, first compound 0.0316 µM
[26] = second compound 3.16 µM, first compound 0.1 µM
[27] = second compound 3.16 µM, first compound 0.316 µM
[28] = second compound 3.16 µM, first compound 1 µM
[29] = second compound 3.16 µM, first compound 3.16 µM
[30] = second compound 3.16 µM, first compound 10 µM
[31] = second compound 10 µM, first compound 0.0316 µM
[32] = second compound 10 µM, first compound 0.1 µM
[33] = second compound 10 µM, first compound 0.316 µM
[34] = second compound 10 µM, first compound 1 µM
[35] = second compound 10 µM, first compound 3.16 µM
[36] = second compound 10 µM, first compound 10 µM

O=C(c1cc(Cc2n[nH]c(=O)c3ccccc23)ccc1F)N1CCN(C(=O)C2CC2)CC1 + CN(C)c1ccc(Nc2c3ccc(NC(=O)CCN4CCCC4)cc3nc3cc(NC(=O)CCN4CCCC4)ccc23)cc1
IC50 (second compound 0.0316 µM): > 10000 nM | IC50 (second compound 0.1 µM): > 10000 nM | IC50 (second compound 0.316 µM): > 10000 nM | IC50 (second compound 1 µM): > 10000 nM | IC50 (second compound 3.16 µM): > 10000 nM | IC50 (second compound 10 µM): > 10000 nM | viability, T/C [1]: 104% | viability, T/C [2]: 103% | viability, T/C [3]: 94.5% | viability, T/C [4]: 100% | viability, T/C [5]: 102% | viability, T/C [6]: 88.8% | viability, T/C [7]: 95% | viability, T/C [8]: 101% | viability, T/C [9]: 102% | viability, T/C [10]: 104% | viability, T/C [11]: 98% | viability, T/C [12]: 81.4% | viability, T/C [13]: 87.6% | viability, T/C [14]: 93.5% | viability, T/C [15]: 101% | viability, T/C [16]: 101% | viability, T/C [17]: 111% | viability, T/C [18]: 82% | viability, T/C [19]: 85.3% | viability, T/C [20]: 86.6% | viability, T/C [21]: 89.9% | viability, T/C [22]: 104% | viability, T/C [23]: 92.4% | viability, T/C [24]: 66.3% | viability, T/C [25]: 93.7% | viability, T/C [26]: 91% | viability, T/C [27]: 90.5% | viability, T/C [28]: 94.2% | viability, T/C [29]: 95.2% | viability, T/C [30]: 70.5% | viability, T/C [31]: 78.8% | viability, T/C [32]: 81.9% | viability, T/C [33]: 81.9% | viability, T/C [34]: 90.4% | viability, T/C [35]: 86.3% | viability, T/C [36]: 64.5%

Cn1ncnc1[C@H]1c2n[nH]c(=O)c3cc(F)cc(c23)N[C@@H]1c1ccc(F)cc1 + Cc1cnc(CNC(=O)c2c(=O)c3ccc(N4CCCN(C)CC4)nc3n3c2sc2ccccc23)cn1
IC50 (second compound 0.0316 µM): 145 nM | IC50 (second compound 0.1 µM): 28.6 nM | IC50 (second compound 0.316 µM): 5.8 nM | IC50 (second compound 1 µM): < 0.999 nM | IC50 (second compound 3.16 µM): < 0.999 nM | IC50 (second compound 10 µM): < 0.999 nM | viability, T/C (second compound 0.0316 µM, first compound 0.000999 µM): 92.1% | viability, T/C (second compound 0.0316 µM, first compound 0.00316 µM): 68.9% | viability, T/C (second compound 0.0316 µM, first compound 0.00999 µM): 77.1% | viability, T/C [1]: 68.2% | viability, T/C (second compound 0.0316 µM, first compound 0.0999 µM): 50.4% | viability, T/C [3]: 42.5% | viability, T/C (second compound 0.1 µM, first compound 0.000999 µM): 71.2% | viability, T/C (second compound 0.1 µM, first compound 0.00316 µM): 63% | viability, T/C (second compound 0.1 µM, first compound 0.00999 µM): 53.7% | viability, T/C [7]: 52.2% | viability, T/C (second compound 0.1 µM, first compound 0.0999 µM): 43.2% | viability, T/C [9]: 40.8% | viability, T/C (second compound 0.316 µM, first compound 0.000999 µM): 53.9% | viability, T/C (second compound 0.316 µM, first compound 0.00316 µM): 53.4% | viability, T/C (second compound 0.316 µM, first compound 0.00999 µM): 48.7% | viability, T/C [13]: 45.4% | viability, T/C (second compound 0.316 µM, first compound 0.0999 µM): 41.1% | viability, T/C [15]: 41.6% | viability, T/C (second compound 1 µM, first compound 0.000999 µM): 47.8% | viability, T/C (second compound 1 µM, first compound 0.00316 µM): 48.8% | viability, T/C (second compound 1 µM, first compound 0.00999 µM): 38.5% | viability, T/C [19]: 41.1% | viability, T/C (second compound 1 µM, first compound 0.0999 µM): 38.5% | viability, T/C [21]: 34.2% | viability, T/C (second compound 3.16 µM, first compound 0.000999 µM): 38.5% | viability, T/C (second compound 3.16 µM, first compound 0.00316 µM): 39.5% | viability, T/C (second compound 3.16 µM, first compound 0.00999 µM): 34.4% | viability, T/C [25]: 34.6% | viability, T/C (second compound 3.16 µM, first compound 0.0999 µM): 35.3% | viability, T/C [27]: 33.4% | viability, T/C (second compound 10 µM, first compound 0.000999 µM): 10.1% | viability, T/C (second compound 10 µM, first compound 0.00316 µM): 9.37% | viability, T/C (second compound 10 µM, first compound 0.00999 µM): 33.9% | viability, T/C [31]: 28.9% | viability, T/C (second compound 10 µM, first compound 0.0999 µM): 9.31% | viability, T/C [33]: 0.26%

COc1cccc2c1C(=O)c1c(O)c3c(c(O)c1C2=O)CC(O)(C(=O)CO)CC3OC1CC(N)C(O)C(C)O1 (stereo unspecified) + Cc1cnc(CNC(=O)c2c(=O)c3ccc(N4CCCN(C)CC4)nc3n3c2sc2ccccc23)cn1
IC50 (second compound 0.0316 µM): 112 nM | IC50 (second compound 0.1 µM): 97.9 nM | IC50 (second compound 0.316 µM): 75.9 nM | IC50 (second compound 1 µM): < 31.6 nM | IC50 (second compound 3.16 µM): < 31.6 nM | IC50 (second compound 10 µM): < 31.6 nM | viability, T/C [1]: 66.9% | viability, T/C [2]: 48.3% | viability, T/C [3]: 36.2% | viability, T/C [4]: 13.1% | viability, T/C [5]: 1.37% | viability, T/C [6]: 2.54% | viability, T/C [7]: 57.7% | viability, T/C [8]: 47.1% | viability, T/C [9]: 36.3% | viability, T/C [10]: 15.2% | viability, T/C [11]: 1.96% | viability, T/C [12]: 1.69% | viability, T/C [13]: 57.3% | viability, T/C [14]: 45.9% | viability, T/C [15]: 34.1% | viability, T/C [16]: 16.2% | viability, T/C [17]: 2.74% | viability, T/C [18]: 3.01% | viability, T/C [19]: 44.2% | viability, T/C [20]: 43.7% | viability, T/C [21]: 30.1% | viability, T/C [22]: 15.9% | viability, T/C [23]: 0.7% | viability, T/C [24]: 1.88% | viability, T/C [25]: 36.5% | viability, T/C [26]: 35.7% | viability, T/C [27]: 28.9% | viability, T/C [28]: 13% | viability, T/C [29]: 1.22% | viability, T/C [30]: 1.18% | viability, T/C [31]: 0.13% | viability, T/C [32]: 1.99% | viability, T/C [33]: 15.3% | viability, T/C [34]: 0.37% | viability, T/C [35]: 0.4% | viability, T/C [36]: 1.84%
